Source: article PMC7070694, “Identification of New Peptides from Fermented Milk Showing Antioxidant Properties: Mechanism of Action” (Antioxidants, 2020)
Peptide text beside a SMILES is read from it.

Assay: MTT cell viability (cytotoxicity)
Assay type: cell-based
Details: human, Caco-2 cells (1 × 10^4), synthetic peptides 0.05 mg/mL, no TbOOH, mean ± SD of at least three experiments, read-out: Percentage of Cell Viability, None (c)

Structure (SMILES): CC[C@H](C)[C@H](NC(=O)[C@H](CCC(N)=O)NC(=O)[C@H](C)NC(=O)[C@@H]1CCCN1C(=O)[C@H](CO)NC(=O)[C@H](CCCNC(=N)N)NC(=O)[C@@H](NC(=O)[C@H](C)N)C(C)C)C(=O)N[C@@H](CC(C)C)C(=O)N[C@@H](CCC(N)=O)C(=O)N[C@@H](Cc1c[nH]c2ccccc12)C(=O)N[C@@H](CCC(N)=O)C(=O)O [A-12-Q] (H-AVRSPAQILQWQ-OH)
- viability at 24 h, 50 µg/mL: 102 ± 4.69%

Structure (SMILES): CC(C)C[C@H](NC(=O)[C@H](Cc1ccc(O)cc1)NC(=O)[C@H](CCC(N)=O)NC(=O)[C@@H]1CCCN1C(=O)[C@H](CC(C)C)NC(=O)[C@H](C)N)C(=O)N[C@@H](CCCCN)C(=O)N[C@H](C(=O)N[C@H](C(=O)N[C@@H](Cc1ccc(O)cc1)C(=O)N[C@@H](CCC(N)=O)C(=O)N[C@@H](Cc1c[nH]cn1)C(=O)N[C@@H](CCC(N)=O)C(=O)N[C@@H](CCCCN)C(=O)O)C(C)C)[C@@H](C)O [A-14-K] (H-ALPQYLKTVYQHQK-OH)
- viability at 24 h, 50 µg/mL: 84.4 ± 9.69%

Structure (SMILES): CC[C@H](C)[C@H](NC(=O)[C@@H](NC(=O)[C@H](CC(N)=O)NC(=O)[C@@H](NC(=O)[C@@H](NC(=O)[C@@H]1CCCN1C(=O)[C@@H](NC(=O)[C@H](CCC(=O)O)NC(=O)[C@@H](NC(=O)[C@H](CCCCN)NC(=O)[C@@H](N)CC(=O)O)[C@@H](C)O)[C@@H](C)CC)[C@@H](C)O)[C@@H](C)CC)[C@@H](C)O)C(=O)N[C@@H](C)C(=O)N[C@@H](CO)C(=O)NCC(=O)N[C@@H](CCC(=O)O)C(=O)N1CCC[C@H]1C(=O)N[C@H](C(=O)O)[C@@H](C)O [D-17-T] (H-DKTEIPTINTIASGEPT-OH)
- viability at 24 h, 50 µg/mL: 104 ± 5.62%

Structure (SMILES): CC[C@H](C)[C@H](NC(=O)[C@H](CCCCN)NC(=O)[C@@H](NC(=O)[C@@H](NC(=O)[C@@H]1CCCN1C(=O)[C@@H](NC(=O)CNC(=O)[C@@H](NC(=O)[C@H](CC(=O)O)NC(=O)[C@H](CC(=O)O)NC(=O)[C@H](CCCCN)NC(=O)[C@@H](N)CCC(=O)O)[C@@H](C)O)[C@@H](C)O)[C@@H](C)CC)[C@@H](C)O)C(=O)N[C@@H](CCC(=O)O)C(=O)N[C@@H](CC(C)C)C(=O)N[C@H](C(=O)N1CCC[C@H]1C(=O)N[C@@H](CO)C(=O)N[C@@H](Cc1c[nH]cn1)C(=O)O)C(C)C [E-18-H] (H-EKDDTGTPITKIELVPSH-OH)
- viability at 24 h, 50 µg/mL: 104 ± 5.01%

Structure (SMILES): CC(C)[C@H](NC(=O)[C@@H]1CCCN1C(=O)[C@H](Cc1ccc(O)cc1)NC(=O)[C@H](CCCCN)NC(=O)[C@@H]1CCCN1C(=O)[C@@H](N)Cc1ccccc1)C(=O)N[C@@H](CCC(=O)O)C(=O)N1CCC[C@H]1C(=O)N[C@@H](Cc1ccccc1)C(=O)O [F-9-F] (H-FPKYPVEPF-OH)
- viability at 24 h, 50 µg/mL: 109 ± 12.7%

Structure (SMILES): CC[C@H](C)[C@H](NC(=O)[C@H](CCCCN)NC(=O)[C@H](CCCCN)NC(=O)[C@H](CC(C)C)NC(=O)[C@@H](N)Cc1ccccc1)C(=O)N[C@@H](CO)C(=O)N[C@@H](CCC(N)=O)C(=O)N[C@@H](CCCNC(=N)N)C(=O)N[C@@H](Cc1ccc(O)cc1)C(=O)N[C@@H](CCC(N)=O)C(=O)N[C@@H](CCCCN)C(=O)N[C@@H](Cc1ccccc1)C(=O)O [F-12-F] (H-FLKKISQRYQKF-OH)
- viability at 24 h, 50 µg/mL: 97.7 ± 19.2%

Structure (SMILES): CSCC[C@H](NC(=O)[C@H](CCC(=O)O)NC(=O)[C@H](CCCCN)NC(=O)[C@@H](N)Cc1c[nH]cn1)C(=O)N1CCC[C@H]1C(=O)N[C@@H](Cc1ccccc1)C(=O)N1CCC[C@H]1C(=O)N[C@@H](CCCCN)C(=O)N[C@@H](Cc1ccc(O)cc1)C(=O)N1CCC[C@H]1C(=O)N[C@H](C(=O)N[C@@H](CCC(=O)O)C(=O)N1CCC[C@H]1C(=O)N[C@@H](Cc1ccccc1)C(=O)N[C@H](C(=O)N[C@@H](CCC(=O)O)C(=O)N[C@@H](CO)C(=O)N[C@@H](CCC(N)=O)C(=O)O)[C@@H](C)O)C(C)C [H-18-Q] (H-HKEMPFPKYPVEPFTESQ-OH)
- viability at 24 h, 50 µg/mL: 91.9 ± 8.99%

Structure (SMILES): CC[C@H](C)[C@H](N)C(=O)N[C@@H](CCC(N)=O)C(=O)N1CCC[C@H]1C(=O)N[C@@H](CCCCN)C(=O)N[C@H](C(=O)N[C@@H](CCCCN)C(=O)N[C@H](C(=O)N[C@H](C(=O)N1CCC[C@H]1C(=O)N[C@@H](Cc1ccc(O)cc1)C(=O)N[C@H](C(=O)N[C@@H](CCCNC(=N)N)C(=O)N[C@@H](Cc1ccc(O)cc1)C(=O)N[C@@H](CC(C)C)C(=O)O)C(C)C)[C@@H](C)CC)C(C)C)[C@@H](C)O [I-14-L] (H-IQPKTKVIPYVRYL-OH)
- viability at 24 h, 50 µg/mL: 93 ± 13.6%

Structure (SMILES): CC[C@H](C)[C@H](N)C(=O)N[C@@H](CC(N)=O)C(=O)N[C@@H](CC(N)=O)C(=O)N[C@@H](CCC(N)=O)C(=O)N[C@@H](Cc1ccccc1)C(=O)N[C@@H](CC(C)C)C(=O)N1CCC[C@H]1C(=O)N[C@@H](Cc1ccc(O)cc1)C(=O)N1CCC[C@H]1C(=O)N[C@@H](Cc1ccc(O)cc1)C(=O)N[C@@H](Cc1ccc(O)cc1)C(=O)N[C@@H](C)C(=O)N[C@@H](CCCCN)C(=O)N1CCC[C@H]1C(=O)N[C@@H](C)C(=O)O [I-15-A] (H-INNQFLPYPYYAKPA-OH)
- viability at 24 h, 50 µg/mL: 104 ± 5.12%

Structure (SMILES): CC[C@H](C)[C@H](NC(=O)[C@@H]1CCCN1C(=O)[C@@H](NC(=O)[C@H](Cc1ccc(O)cc1)NC(=O)[C@@H](N)CCCCN)[C@@H](C)CC)C(=O)N[C@@H](CCC(N)=O)C(=O)N[C@@H](Cc1ccc(O)cc1)C(=O)N[C@H](C(=O)N[C@@H](CC(C)C)C(=O)N[C@@H](CO)C(=O)O)C(C)C [K-10-S] (H-KYIPIQYVLS-OH)
- viability at 24 h, 50 µg/mL: 97.3 ± 6.69%

Structure (SMILES): CC(C)C[C@H](NC(=O)[C@H](CC(C)C)NC(=O)[C@H](CC(N)=O)NC(=O)[C@H](CCC(=O)O)NC(=O)[C@H](CC(N)=O)NC(=O)[C@H](CC(C)C)NC(=O)[C@@H](NC(=O)[C@H](CCC(=O)O)NC(=O)[C@H](CCC(N)=O)NC(=O)[C@@H]1CCCN1C(=O)[C@H](CC(C)C)NC(=O)CNC(=O)[C@H](CCC(N)=O)NC(=O)[C@H](Cc1c[nH]cn1)NC(=O)[C@@H](N)CCCCN)C(C)C)C(=O)O [K-15-L] (H-KHQGLPQEVLNENLL-OH)
- viability at 24 h, 50 µg/mL: 105 ± 14.5%

Structure (SMILES): CC[C@H](C)[C@H](NC(=O)[C@H](CCC(=O)O)NC(=O)CNC(=O)[C@@H]1CCCN1C(=O)[C@@H](NC(=O)[C@@H](N)CC(N)=O)C(C)C)C(=O)N[C@H](C(=O)N[C@@H](CCC(=O)O)C(=O)N[C@@H](CO)C(=O)N[C@@H](CC(C)C)C(=O)O)C(C)C [N-10-L] (H-NVPGEIVESL-OH)
- viability at 24 h, 50 µg/mL: 120 ± 15.7%

Structure (SMILES): CC(C)[C@H](NC(=O)[C@H](CCC(=O)O)NC(=O)[C@@H]1CCCN1C(=O)[C@H](Cc1ccccc1)NC(=O)[C@@H]1CCCN1)C(=O)N[C@@H](Cc1ccccc1)C(=O)NCC(=O)N[C@@H](CCCCN)C(=O)N[C@@H](CCC(=O)O)C(=O)O [P-9-E] (H-PFPEVFGKE-OH)
- viability at 24 h, 50 µg/mL: 101 ± 14.5%

Structure (SMILES): CC[C@H](C)[C@H](NC(=O)CNC(=O)[C@H](Cc1ccc(O)cc1)NC(=O)[C@H](CO)NC(=O)[C@@H]1CCCN1C(=O)[C@H](Cc1ccc(O)cc1)NC(=O)[C@H](CCCNC(=N)N)NC(=O)[C@H](CO)NC(=O)[C@H](CC(C)C)NC(=O)[C@@H](NC(=O)[C@H](Cc1ccc(O)cc1)NC(=O)[C@@H](N)CCC(N)=O)C(C)C)C(=O)N[C@@H](CC(N)=O)C(=O)O [Q-13-N] (H-QYVLSRYPSYGIN-OH)
- viability at 24 h, 50 µg/mL: 104 ± 6.64%

Structure (SMILES): CSCC[C@H](NC(=O)[C@H](Cc1c[nH]c2ccccc12)NC(=O)[C@@H](N)CO)C(=O)N[C@@H](Cc1c[nH]cn1)C(=O)N[C@@H](CCC(N)=O)C(=O)N1CCC[C@H]1C(=O)N[C@@H](Cc1c[nH]cn1)C(=O)N[C@@H](CCC(N)=O)C(=O)N1CCC[C@H]1C(=O)N[C@@H](CC(C)C)C(=O)N1CCC[C@H]1C(=O)N1CCC[C@H]1C(=O)N[C@H](C(=O)O)[C@@H](C)O [S-13-T] (H-SWMHQPHQPLPPT-OH)
- viability at 24 h, 50 µg/mL: 107 ± 12.4%

Structure (SMILES): CC(C)C[C@H](NC(=O)[C@@H](NC(=O)[C@H](CCCCN)NC(=O)[C@H](CO)NC(=O)[C@H](CCC(N)=O)NC(=O)[C@@H](N)CO)C(C)C)C(=O)N1CCC[C@H]1C(=O)N[C@H](C(=O)N1CCC[C@H]1C(=O)N[C@@H](CCC(N)=O)C(=O)N[C@@H](CCCCN)C(=O)N[C@@H](C)C(=O)N[C@H](C(=O)N1CCC[C@H]1C(=O)N[C@@H](Cc1ccc(O)cc1)C(=O)N1CCC[C@H]1C(=O)N[C@@H](CCC(N)=O)C(=O)O)C(C)C)C(C)C [S-17-Q] (H-SQSKVLPVPQKAVPYPQ-OH)
- viability at 24 h, 50 µg/mL: 101 ± 7.46%

Structure (SMILES): CC(C)C[C@H](NC(=O)[C@H](Cc1ccccc1)NC(=O)[C@@H]1CCCN1C(=O)[C@@H]1CCCN1C(=O)[C@@H](NC(=O)[C@@H](N)C(C)C)C(C)C)C(=O)N[C@@H](CCC(N)=O)C(=O)N1CCC[C@H]1C(=O)N[C@@H](CCC(=O)O)C(=O)O [V-9-E] (H-VVPPFLQPE-OH)
- viability at 24 h, 50 µg/mL: 107 ± 8.02%

Structure (SMILES): CC[C@H](C)[C@H](NC(=O)[C@@H]1CCCN1C(=O)CNC(=O)[C@@H]1CCCN1C(=O)[C@H](Cc1ccccc1)NC(=O)[C@@H]1CCCN1C(=O)[C@H](Cc1ccc(O)cc1)NC(=O)[C@@H](N)C(C)C)C(=O)N1CCC[C@H]1C(=O)N[C@@H](CC(N)=O)C(=O)O [V-10-N] (H-VYPFPGPIPN-OH)
- viability at 24 h, 50 µg/mL: 111 ± 9.93%

Structure (SMILES): CC[C@H](C)[C@H](NC(=O)[C@H](CCC(=O)O)NC(=O)[C@@H]1CCCN1C(=O)[C@@H]1CCCN1C(=O)[C@H](CO)NC(=O)[C@H](CCC(=O)O)NC(=O)[C@@H](NC(=O)[C@@H](N)C(C)C)[C@@H](C)CC)C(=O)N[C@@H](CC(N)=O)C(=O)N[C@H](C(=O)N[C@H](C(=O)N[C@@H](CCC(N)=O)C(=O)O)C(C)C)[C@@H](C)O [V-12-Q] (H-VIESPPEINTVQ-OH)
- viability at 24 h, 50 µg/mL: 113 ± 3.52%
